Entries after “also recorded” stand apart in the source; their conditions may differ. Square brackets hold non-standard residues; d marks the D form. Ends that are not written are not given here. Hyp = O=C(O)[C@@H]1C[C@@H](O)CN1
Experiments:
RBL-2H3 cells = assay: Degranulation assay, RBL-2H3 cells primed with monoclonal IgE; type: cell-based, rat; details: valency of 18, FIG. 19
Protocol: Cell Culture. RBL-2H3 cells were cultured in Minimum Essential Media (Gibco) with 10% fetal bovine serum (Gemini BioProducts) as previously described.^25
Degranulation Assays. RBL degranulation assays were performed as previously described, expect using nanoallergens as the allergen.^23 Additionally, RBL cells were incubated with 1 μg/mL of total IgE overnight prior to nanoallergen incubation using 75% IgE^cyclinA as an orthogonal IgE (i.e. an IgE specific to a molecule, cyclinA, which is not used in this study) to simulate physiological conditions for all degranulation assays.^21

RBL-SX38 cells = assay: Degranulation assay, RBL-SX38 cells primed with peanut allergy patient sera; type: cell-based, rat; details: for degranulation response: 2% epitope-lipid nanoallergens, single patient serum (FIG. 4); for Immuno-reactivity: epitope-lipid loaded in nanoallergens, patient sera; for effect on Ara h 2 triggered degranulation: 100 μM free epitope 2, FIG. 13
Protocol: Cell Culture. RBL-SX38 cells were a generous gift from Dr. Jean-Pierre Kinet from Harvard University. RBL-SX38 cells were cultured in Minimum Essential Media (Gibco) with 10% fetal bovine serum (Gemini BioProducts, Sacramento Calif.) and 1.2 mg/mL of G418 salt (Sigma) as previously described.
Degranulation Assays. Degranulation assays were performed as previously described using nanoallergens as the allergen. RBL cells were plated into 96-well dishes for 24 hrs and then incubated with 10% of human sera in cell culture media for an additional 24 hrs prior to the degranulation assay.
Using the mast-like rat basophil leukemia SX38 (RBL) cell line that has been transfected to express the human FcεRI on their surface, applicants can use peanut reactive patient sera in applicants' cellular degranulation assays (FIG. 8). The RBL cells become sensitized when IgEs from the patient sera (including those reactive to peanuts) tightly bind to the high affinity FcεRI. After sensitization, applicants added varying concentrations of either Ara h 2 or nanoallergens with 2% of epitope 2 lipid loaded into the liposome.

patient IgEs = assay: ELISA binding assay with patient sera; set-up: species or system human; details: for EC50: patient serum 0, plate coated with anti-IgE IgG
Protocol: ELISA Assay. A high binding 96-well plate was incubated with anti-Human IgE in Carbonate-Bicarbonate buffer (Sigma) at a concentration of 3 nM for 16 hours at 4° C. Plate was washed with washing buffer (PBS with 0.5% tween 20) and then blocked with blocking buffer (5% BSA in PBS with 0.1% tween 20) for 1 hr at room temperature. Plate was washed with automatic plate washer (AquaMax 2000), then varying concentrations of either Ara h 2-Biotin (Indoors Biotechnologies) or FITC-peptide 2 conjugate in blocking buffer for 1 hour. Plate was washed again and then either streptavidin-HRP (1:5000 dilution) or anti-FITC HRP IgG (1:5000 dilution) was added in blocking buffer. After washing, Amplex Red substrate was added (Invitrogen) and plate fluorescence read at 5 minute intervals according to manufacturers instructions.

[1] = tested on: Bruton's tyrosine kinase (BTK); assay: Western blot of BTK phosphorylation in stimulated RBL-SX38 cells; type: cell-based, rat; details: FIG. 3
Protocol: Western Blot. Stimulated RBL cells were analyzed for intracellular activity with a Western blotting technique previously described. RBL-SX38 cells were plated at approximately 0.5×10^6 cells per mL into a 3 mL dish for 24 hours. Cells were then incubated in 10% patient serum in cell culture media for 24 hours. Cells were then washed with Tyrodes buffer and incubated with Tyrodes from 30 minutes at 37° C. Ara h 2 or nanoallergens were then added at varying concentrations and incubated at 37° C. for 3 minutes. Cells were washed with ice cold PBS, then incubated in RIPA with phosphatase inhibitor lysis buffer, scrapped and sonicated for a minute intervals over the course of 30 minutes on ice. Lysates were then spun down at 15000 RPM for 10 minutes and their protein concentration determined by Bradford Assay. Laemmli buffer and PBS were added to all lysates so that their protein concentration was 0.5 mg/mL or would be 0.5 mg/mL prior to immunoprecipitation. Samples were boiled for 5 minutes; centrifuged and 20 uL of each was added to a 10% SDS-PAGE gel. Samples ran on the gel for 1 hr, were transferred to nitrocellulose paper for 1.5 hrs, and blocked with 5% BSA in TBS-T for 1 hr. […] The membranes were washed, and incubated in with Clarity™ Western ECL Blotting Substrate (Bio-Rad) for 5 minutes. Bands were exposed onto Kodak Chemiluminescence Film for times ranging from 1-30 minutes.

IgE^dansyl [2] = assay: Fluorescence quenching titration of dansyl conjugates; type: binding; details: monovalent affinity of hapten-amino acid conjugate
Protocol: Fluorescence Quenching Assay. The binding constants for dansyl conjugates were determined as previously described.^27 Briefly, Dansyl conjugates were titrated into wells containing 15 nM IgE^dansyl and then the flourscence read at various concentration points (Ex=280 nm, Em=335).

IgE^dansyl [3] = assay: Fluorescence quenching binding of HBI molecules to IgE^dansyl
Protocol: Fluorescence Quenching. In order to determine binding of HBI molecules to respective antibodies, we observed the quenching of tryptophan resides using a method previously described. Briefly, either IgE^dansyl or IgG^Penicillin was diluted into a non-binding 96-well dish at 40 nM in PBS. Then, HBI molecules which contained either a dansyl or DNP group were titrated into well and fluorescence (Ex. 280 nm, Em. 335) was observed using a SpectraMax M2 spectrophotometer. PBS and free tryptamine diluted to similar initial fluorescence values were used as controls to account for HBI fluorescence and non-specific quenching respectively.

[4] = various sera from highly allergic individuals; cited from earlier work
[5] = all four patient sera, 2% loaded, FIG. 6

Molecule: DNP-BSA: DNP groups covalently bonded to bovine serum albumin, valency of 18, used as a control
- EC50 (RBL-2H3 cells): 26 ± 9 nM

Molecule: Epitope-Lipid 5: Ara h 2 epitope HASARQQWEL (15-24) lipid conjugate, tested loaded at 2% in nanoallergens (also: lipid conjugate, site not given here)
- degranulation response (RBL-SX38 cells; listed as epitope 5): simulate degranulation; also recorded: could trigger degranulation
- degranulation response in patient sera (RBL-SX38 cells; [5]): moderate responses
- Immuno-reactivity (RBL-SX38 cells): Mild
- binding through ELISA (patient IgEs): did not demonstrate any binding

Molecule: Epitope-Lipid 6: Ara h 2 epitope RQQEQQFKRELRNLPQQ (120-136) lipid conjugate, tested loaded at 2% in nanoallergens (also: lipid conjugate, site not given here)
- degranulation response (RBL-SX38 cells): simulate degranulation
- degranulation response in patient sera (RBL-SX38 cells; [5]): moderate responses
- Immuno-reactivity (RBL-SX38 cells): Mild

Molecule: free epitope 2 peptide: free Ara h 2 epitope 2 peptide, used at 100 μM (ERDPYS[Hyp]SQDPYS[Hyp]S)
- effect on Ara h 2 triggered degranulation (RBL-SX38 cells): only a very small decrease in degranulation response
- effect on Ara h 2 triggered degranulation (RBL-SX38 cells; listed as free epitope peptide 2): did not prevent Ara h 2 protein from triggering degranulation
- effect on nanoallergen degranulation response (RBL-SX38 cells; 100 μM free peptide 2, FIG. 9): can be prevented

Molecule: Epitope-Lipid 3: Ara h 2 epitope SDRLQGRQQ (114-123) lipid conjugate, tested loaded at 2% in nanoallergens (also: lipid conjugate, site not given here)
- degranulation response (RBL-SX38 cells; listed as epitope 3): simulate degranulation; also recorded: could trigger degranulation
- Immuno-reactivity (RBL-SX38 cells): Mild
- binding through ELISA (patient IgEs): did not demonstrate any binding

Molecule: Epitope-Lipid 8: Ara h 2 epitope CDLEVESGGRDRY (145-157) lipid conjugate, tested loaded at 2% in nanoallergens (also: lipid conjugate, site not given here)
- degranulation response (RBL-SX38 cells): little or no degranulation response
- degranulation response in patient sera (RBL-SX38 cells; all four patient sera, 2% loaded, FIG. 6, listed as epitope 8): no response; also recorded: did not demonstrate any degranulation
- Immuno-reactivity (RBL-SX38 cells): None

Molecule: Epitope-Lipid 7: Ara h 2 epitope PQRCDLE (142-148) lipid conjugate, tested loaded at 2% in nanoallergens (also: lipid conjugate, site not given here)
- degranulation response (RBL-SX38 cells): simulate degranulation
- degranulation response in patient sera (RBL-SX38 cells; [5]): low responses
- Immuno-reactivity (RBL-SX38 cells): Low

Molecule: Pep2: FITC-tagged epitope 2 peptide used in ELISA (ERDPYS[Hyp]SQDPYS[Hyp]S; also: FITC-tagged, site not given here)
- EC50 (patient IgEs): 465 ± 200 nM

Molecule: Epitope-Lipid 2: Ara h 2 epitope ERDPYSP^OHSQDPYSP^OHS (79-91) lipid conjugate, tested loaded at 2% in nanoallergens (ERDPYS[Hyp]SQDPYS[Hyp]S; also: lipid conjugate, site not given here)
- fold lower concentration than Ara h 2 to stimulate degranulation (RBL-SX38 cells; 2% epitope 2 lipid, FIG. 2C): approximately 10 fold
- degranulation response (RBL-SX38 cells): simulate degranulation
- effect of proline hydroxylations on degranulation response (RBL-SX38 cells; 2% loaded nanoallergens, with and without hydroxylations, FIG. 10): increase in response when proline hydroxylations are present
- Immuno-reactivity (RBL-SX38 cells): High
- fold lower concentration than the other immune-reactive epitope nanoallergens to stimulate degranulation (RBL-SX38 cells; single patient serum, FIG. 4): approximately 100 fold
- BTK phosphorylation [1]: increase in phosphorylation BTK

Molecule: Dansyl
- Kd (IgE^dansyl [2]): 147 nM
- Kd (IgE^dansyl [3]): 29.9 ± 10 nM

Molecule: Epitope-Lipid 4: Ara h 2 epitope RRCQSQLER (28-35) lipid conjugate, tested loaded at 2% in nanoallergens (also: lipid conjugate, site not given here)
- degranulation response (RBL-SX38 cells; listed as epitope 4): simulate degranulation; also recorded: little or no degranulation response
- degranulation response in patient sera (RBL-SX38 cells; [5]): no response
- Immuno-reactivity (RBL-SX38 cells): None

Molecule: Epitope-Lipid 1: Ara h 2 epitope NLRPCEQHLMQKIQRD (38-53) lipid conjugate, tested loaded at 2% in nanoallergens (also: lipid conjugate, site not given here)
- degranulation response (RBL-SX38 cells): little or no degranulation response
- degranulation response in patient sera (RBL-SX38 cells; Serum 1, 2 and 3, in contrast to Serum 0): moderate responses
- Immuno-reactivity (RBL-SX38 cells): None

B1: Ara h2: major peanut allergen, 17.5 kDa 2 S albumin seed storage protein (protein)
chain: RQQWELQGDRRCQSQLERANLRPCEQHLMQKIQRDEDSYGRDPYSPSQDPYSPSQDPDRRDPYSPSPYDRRGAGSSQHQERCCNELNEFENNQRCMCEALQQIMENQSDRLQGRQQEQQFKRELRNLPQQCGLRAPQRCDLEVESGGRDRY
- EC50 (patient IgEs): 40 ± 27 nM
- EC50 values in cellular studies [4]: low picomolar range

Reference: patent publication US11638763B2, “Nanoallergens and uses thereof” (University of Notre Dame du Lac, priority 2015, dated 2023)
